Key:
σ1-receptor = molecular target: T1, σ1-receptor (Cavia porcellus, UniProt Q60492); assay: Sigma-1 receptor radioligand binding, [3H](+)pentazocine (Version A / Version B); set-up: species or system guinea pig; conditions: for % Binding σ1 10^−6 M: compound 10^−6 M; for % Binding σ1 10^−6 M / inhibition at 0.1 µM / inhibition at 0.01 µM: guinea pig brain membranes; for Ki: value in parentheses below the % binding, guinea pig brain; for inhibition at 0.1 µM: compound 10^−7 M; for inhibition at 0.01 µM: compound 10^−8 M
T1 construct: guinea pig brains were homogenized in 10 vols; (w/v) of Tris-HCl 50 mM 0.32 M sucrose; from tissue; host or cells: guinea pig brain membranes
T1 sequence (Q60492 whole entry): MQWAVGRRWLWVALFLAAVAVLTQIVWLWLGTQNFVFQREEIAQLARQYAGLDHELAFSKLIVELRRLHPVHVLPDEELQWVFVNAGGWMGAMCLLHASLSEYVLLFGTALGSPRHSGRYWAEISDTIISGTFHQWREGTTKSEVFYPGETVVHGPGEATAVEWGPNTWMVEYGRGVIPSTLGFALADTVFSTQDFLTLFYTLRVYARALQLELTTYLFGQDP
Procedure: Brain membrane preparation and binding assays for the σ1-receptor were performed as described (DeHaven-Hudkins et al., 1992) with some modifications. In brief, guinea pig brains were homogenized in 10 vols. (w/v) of Tris-HCl 50 mM 0.32 M sucrose, pH 7.4, with a Kinematica Polytron PT 3000 at 15000 r.p.m. for 30 s. The homogenate was centrifuged at 1000 g for 10 min at 4° C. and the supernatants collected and centrifuged again at 48000 g for 15 min at 4° C. The pellet was resuspended in 10 volumes of Tris-HCl buffer (50 mM, pH 7.4), incubated at 37° C. for 30 min, and centrifuged at 48000 g for 20 min at 4° C. Following this, the pellet was resuspended in fresh Tris-HCl buffer (50 mM, pH 7.4) and stored on ice until use.
Each assay tube contained 10 μL of [^3H](+)pentazocine (final concentration of 0.5 nM), 900 μL of the tissue suspension to a final assay volume of 1 mL and a final tissue concentration of approximately 30 mg tissue net weight/mL. Non-specific binding was defined by addition of a final concentration of 1 μM haloperidol. All tubes were incubated at 37° C. for 150 min before termination of the reaction by rapid filtration over Schleicher & Schuell GF 3362 glass fibre filters [previously soaked in a solution of 0.5% polyethylenimine for at least 1 h]. Filters were then washed with four times with 4 mL of cold Tris-HCl buffer (50 mM, pH 7.4). Following addition of scintillation cocktail, the samples were allowed to equilibrate overnight. The amount of bound radioactivity was determined by liquid scintillation spectrometry using a Wallac Winspectral 1414 liquid scintillation counter. Protein concentrations were determined by the method of Lowry et al. (1951).
In brief the σ1-receptor preparation was prepared from guinea pig brain. The brains were homogenized in 5 to 6 times of volume sucrose solution (0.32M) and homogenized. The homogenate was centrifuged at 2900 rpm, 4° C., 10 min). the supernatant was centrifuged again (23500×g, 4° C., 20 min). The pellet was resuspended in Tris-buffer, incubated for 30 min at room temperature and centrifuged f (23500×g, 4° C., 20 min). The pellet was resuspended in cold TRIS-buffer and homogenized. Then the protein content was measured (approx. 1.5 mg/mL) and the homogenate frozen at −80° C. for later use.
The radioligand used was [^3H]-(+)-Pentazocin in TRIS-buffer. In a volume of 200 μL 50 μL TRIS-buffer, 50 μL compound solution of varying concentration, 50 μL radioligand-solution (8 nM; resulting in 2 nM in the assay) and finally 50 μL of receptor preparation (approx. 1.5 mg/mL) were given into a well of a microplate equipped with a filter. The plate was closed and stirred for 2.5 h at 37° C. and 500 rpm. Following that the solvents were removed by a harvester through the filter. After rinsing with H2O the filter was measured in a scintillation counter ([^3H]-protocol).

σ2-receptor = assay: Sigma-2 receptor radioligand binding, [3H]-DTG (Version A / Version B); set-up: species or system mice (Version A, σ1 knockout brain) / rat (Version B, liver); conditions: compound 10^−6 M
Procedure: Binding studies for σ2-receptor were performed as described (Radesca et al., 1991) with some modifications. In brief, brains from sigma receptor type I (σ1) knockout mice were homogenized in a volume of 10 mL/g tissue net weight of ice-cold 10 mM Tris-HCl, pH 7.4, containing 320 mM sucrose (Tris-sucrose buffer) with a Potter-Elvehjem homogenizer (10 strokes at 500 r.p.m.) The homogenates were then centrifuged at 1000 g for 10 min at 4° C., and the supernatants were saved. The pellets were resuspended by vortexing in 2 mL/g ice-cold Tris-sucrose buffer and centrifuged again at 1000 g for 10 min. The combined 1000 g supernatants were centrifuged at 31000 g for 15 min at 4° C. The pellets were resuspended by vortexing in 3 mL/g 10 mM Tris-HCl, pH 7.4, and the suspension was kept at 25° C. for 15 min. Following centrifugation at 31000 g for 15 min, the pellets were resuspended by gentle Potter Elvehjem homogenization to a volume of 1.53 mL/g in 10 mM Tris-HCl pH 7.4.
The assay tubes contained 10 μL of [^3H]-DTG (final concentration of 3 nM), 400 μL of the tissue suspension (5.3 mL/g in 50 mM Tris-HCl, pH 8.0) to a final assay volume of 0.5 mL. Non-specific binding was defined by addition of a final concentration of 1 μM haloperidol. All tubes were incubated at 25° C. for 120 min before termination of the reaction by rapid filtration over Schleicher & Schuell GF 3362 glass fibre filters [previously soaked in a solution of 0.5% polyethylenimine for at least 1 h]. Filters were washed with three times with 5 mL volumes of cold Tris-HCl buffer (10 mM, pH 8.0). Following addition of scintillation cocktail samples were allowed to equilibrate overnight. The amount of bound radioactivity was determined by liquid scintillation spectrometry using a Wallac Winspectral 1414 liquid scintillation counter. Protein concentrations were determined by the method of Lowry et al. (1951).
In brief the σ2-Receptor preparation was prepared from rat liver. The livers were homogenized in 5 to 6 times of volume sucrose solution (0.32M) and homogenized. The homogenate was centrifuged at 2900 rpm, 4° C., 10 min). the supernatant was centrifuged again (31000×g, 4° C., 20 min). The pellet was resuspended in TRIS-buffer, incubated for 30 min at room temperature while stirring and centrifuged f (31000×g, 4° C., 20 min). The pellet was resuspended in cold TRIS-buffer pH 8 and homogenized. Then the protein content was measured (approx. 2 mg/mL) and the homogenate frozen at −80° C. for later use.
The radioligand used was [^3H]-Ditolylguanidin in TRIS-buffer pH 8. The σ1-receptor binding sites were masked through (+)-Pentazocin-solution in TRIS-Puffer pH 8.
In a volume of 200 μL 50 μL compound solution of varying concentration, 50 μL (+Pentazocin-solution (2 μM; resulting in 500 nM in the assay), 50 μL radioligand-solution (12 nM; resulting in 3 nM in the assay) and finally 50 μL of receptor preparation (approx. 2 mg/mL) were given into a well of a microplate equipped with a filter. The plate was closed and stirred for 2 h at room temperature and 500 rpm. Following that the solvents were removed by a harvester through the filter. After rinsing with H2O the filter was measured in a scintillation counter ([^3H]-protocol).

## COC1Cc2ccccc2C2(CCCNC2)O1 (centres unmarked)
other
  melting point: 54 to 58 °C

## COC1OC2(CC[N+]3(CCCC3)CC2)c2ccccc21.[Br-] (centres unmarked)
other
  melting point: 124 °C

## COC1Cc2ccccc2C2(CCN(Cc3ccccc3)C2)O1 (mixture of isomers) [Example 18, cis/trans-1′-Benzyl-3-methoxy-3,4-dihydrospiro[[2]benzopyran-1,3′-pyrrolidin]]
σ1-receptor
  % Binding σ1 10^−6 M: 96.2%
  Ki: 70 nM

## COC1Cc2ccccc2C2(CCN(CCc3ccccc3)C2)O1 (mixture of isomers) [Example 20, cis/trans-3-Methoxy-1′-(2-phenylethyl)-3,4-dihydrospiro[[2]benzopyran-1,3′-pyrrolidin]]
σ1-receptor
  inhibition at 0.1 µM: 89.5%
  inhibition at 0.01 µM: 32%

## COC1Cc2ccccc2C2(CCN(CCCCc3ccccc3)C2)O1 (mixture of isomers) [Example 21, cis/trans-3-Methoxy-1′-(4-phenylbutyl)-3,4-dihydrospiro[[2]benzopyran-1,3′-pyrrolidin]]
σ1-receptor
  inhibition at 0.1 µM: 67%
  inhibition at 0.01 µM: 32%

## CCCCCCCCN1CCC2(C1)OC(OC)Cc1ccccc12 (mixture of isomers) [Example 23, cis/trans-3-Methoxy-1′-octyl-3,4-dihydrospiro[[2]benzopyran-1,3′-pyrrolidin]]
σ1-receptor
  inhibition at 0.1 µM: 70.4%
  inhibition at 0.01 µM: 0.8%

## COC1OC2(CCN(CCc3ccccc3)C2)c2ccccc21 (mixture of isomers) [Example 27, cis/trans-3-Methoxy-1′-(2-Phenylethyl)-3H-spiro[[2]benzofuran-1,3′-pyrrolidin]]
σ1-receptor
  inhibition at 0.1 µM: 92.2%
  inhibition at 0.01 µM: 40.4%

## COC1OC2(CCN(CCCCc3ccccc3)C2)c2ccccc21 (mixture of isomers) [Example 28, cis/trans-3-Methoxy-1′-(4-Phenylbutyl)-3H-spiro[[2]benzofuran-1,3′-pyrrolidin]]
σ1-receptor
  inhibition at 0.1 µM: 80.4%
  inhibition at 0.01 µM: 27.4%

## CCCCN1CCC2(C1)OC(OC)c1ccccc12 (mixture of isomers) [Example 29, cis/trans-1′-Butyl-3-methoxy-3H-spiro[[2]benzofuran-1,3′-pyrrolidin]]
σ1-receptor
  inhibition at 0.1 µM: 68.9%
  inhibition at 0.01 µM: 45.6%

## CCCCCCCCN1CCC2(C1)OC(OC)c1ccccc12 (mixture of isomers) [Example 30, cis/trans-3-Methoxy-1′-octyl-3H-spiro[[2]benzofuran-1,3′-pyrrolidin]]
σ1-receptor
  inhibition at 0.1 µM: 91.5%
  inhibition at 0.01 µM: 41.8%

## CCCCN1CCC[C@]2(C1)O[C@H](OC)Cc1ccccc12 (racemic) [Example 11, trans-1′-Butyl-3-methoxy-3,4-dihydrospiro[[2]benzopyran-1,3′-piperidin]]
σ1-receptor
  % Binding σ1 10^−6 M: 49^ %
σ2-receptor
  % Binding σ2 10^−6 M: 18.8%

## CO[C@@H]1Cc2ccccc2[C@]2(CCCN(Cc3ccccc3)C2)O1 (relative stereo) [Example 2, trans-1′-Benzyl-3-methoxy-3,4-dihydrospiro[[2]benzopyran-1,3′-piperidin]]
σ1-receptor
  % Binding σ1 10^−6 M: 12.9%
σ2-receptor
  % Binding σ2 10^−6 M: 27.8%

## CO[C@@H]1Cc2ccccc2[C@@]2(CCCN(CCCc3ccccc3)C2)O1 (relative stereo) [Example 6, cis-3-Methoxy-1′-(3-phenylpropyl)-3,4-dihydrospiro[[2]benzopyran-1,3′-piperidin]]
σ1-receptor
  % Binding σ1 10^−6 M: 38.8%
σ2-receptor
  % Binding σ2 10^−6 M: 32.2%

## CO[C@@H]1Cc2ccccc2[C@]2(CCCN(CCCc3ccccc3)C2)O1 (relative stereo) [Example 7, trans-3-Methoxy-1′-(3-phenylpropyl)-3,4 dihydrospiro[[2]benzopyran-1,3′-piperidin]]
σ1-receptor
  % Binding σ1 10^−6 M: 14^ %
σ2-receptor
  % Binding σ2 10^−6 M: 54.3%

## CCCCN1CCC[C@@]2(C1)O[C@H](OC)Cc1ccccc12 (relative stereo) [Example 10, cis-1′-Butyl-3-methoxy-3,4-dihydrospiro[[2]benzopyran-1,3′-piperidin]]
σ1-receptor
  % Binding σ1 10^−6 M: 56^ %
σ2-receptor
  % Binding σ2 10^−6 M: 7.6%

## CCCCCCCCN1CCC[C@]2(C1)O[C@H](OC)Cc1ccccc12 (relative stereo) [Example 15, trans-3-Methoxy-1′-octyl-3,4-dihydrospiro[[2]benzopyran-1,3′-piperidin]]
σ1-receptor
  % Binding σ1 10^−6 M: 27.6%
σ2-receptor
  % Binding σ2 10^−6 M: 56.3%

## CO[C@@H]1Cc2ccccc2[C@@]2(CCCN(Cc3ccccc3)C2)O1 [Example 1, cis-1′-Benzyl-3-methoxy-3,4-dihydrospiro[[2]benzopyran-1,3′-piperidin]]
σ1-receptor
  inhibition at 0.1 µM: 34%

## CCCCCCCCN1CCC[C@@]2(C1)O[C@H](OC)Cc1ccccc12 [Example 14, cis-3-Methoxy-1′-octyl-3,4-dihydrospiro[[2]bonzopyran-1,3′-piperidin]]
σ1-receptor
  % Binding σ1 10^−6 M: 46.3%
σ2-receptor
  % Binding σ2 10^−6 M: 45.4%

## CCCCN1CCC2(CC1)OC(OC)Cc1ccccc12 (centres unmarked) [Example 36]
σ1-receptor
  % Binding σ1 10^−6 M: 100.8%
  Ki: 2.3 nM
σ2-receptor
  % Binding σ2 10^−6 M: 39.7%

## CCCCCCCCN1CCC2(CC1)OC(OC)Cc1ccccc12 (centres unmarked) [Example 37]
σ1-receptor
  % Binding σ1 10^−6 M: 103.9%
σ2-receptor
  % Binding σ2 10^−6 M: 72.6%
